Results as given in article PMC8343220, “The selectivity of α‐adrenoceptor agonists for the human α1A, α1B, and α1D‐adrenoceptors” (Pharmacology Research & Perspectives, 2021).

Legend:
human α1A‐adrenoceptor [1] = target: T1, human α1A‐adrenoceptor (Homo sapiens, UniProt P35348); experiment: ^3H‐prazosin whole‐cell radioligand binding, CHO‐α1A cells
T1 construct: expressed in transfected cells; host or cells: CHO-K1
T1 sequence (P35348 1-466): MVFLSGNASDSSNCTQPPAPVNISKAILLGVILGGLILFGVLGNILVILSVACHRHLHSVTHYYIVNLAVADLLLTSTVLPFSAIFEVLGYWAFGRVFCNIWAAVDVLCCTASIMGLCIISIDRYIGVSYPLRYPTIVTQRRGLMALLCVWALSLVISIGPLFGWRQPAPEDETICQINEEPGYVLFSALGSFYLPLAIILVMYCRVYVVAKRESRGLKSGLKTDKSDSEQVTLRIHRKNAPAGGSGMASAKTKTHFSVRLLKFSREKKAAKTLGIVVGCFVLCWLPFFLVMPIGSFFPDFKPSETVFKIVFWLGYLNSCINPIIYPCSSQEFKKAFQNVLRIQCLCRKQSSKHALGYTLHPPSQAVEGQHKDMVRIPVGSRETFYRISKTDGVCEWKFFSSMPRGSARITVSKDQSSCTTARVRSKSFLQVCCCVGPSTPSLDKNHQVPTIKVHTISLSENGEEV

human α1B‐adrenoceptor [2] = target: T2, human α1B‐adrenoceptor (Homo sapiens, UniProt P35368); experiment: ^3H‐prazosin whole‐cell radioligand binding, CHO‐α1B cells
T2 construct: expressed in transfected cells; host or cells: CHO-K1
T2 sequence (P35368 1-520): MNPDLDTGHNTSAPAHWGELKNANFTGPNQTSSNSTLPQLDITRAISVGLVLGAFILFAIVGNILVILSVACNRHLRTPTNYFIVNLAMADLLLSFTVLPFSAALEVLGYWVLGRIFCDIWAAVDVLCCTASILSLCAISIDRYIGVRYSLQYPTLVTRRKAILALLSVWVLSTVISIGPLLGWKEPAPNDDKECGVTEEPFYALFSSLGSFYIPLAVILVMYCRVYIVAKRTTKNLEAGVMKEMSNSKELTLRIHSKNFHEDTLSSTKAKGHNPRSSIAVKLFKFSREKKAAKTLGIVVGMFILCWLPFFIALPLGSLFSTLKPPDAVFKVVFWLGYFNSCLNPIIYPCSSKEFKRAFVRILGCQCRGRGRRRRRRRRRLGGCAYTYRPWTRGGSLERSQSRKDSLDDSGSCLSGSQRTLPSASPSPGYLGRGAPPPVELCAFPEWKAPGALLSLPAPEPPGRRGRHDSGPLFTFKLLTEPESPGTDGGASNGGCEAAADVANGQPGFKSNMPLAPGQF

[3] = target: T3, human α1D‐adrenoceptor (full length) (Homo sapiens, UniProt P25100); experiment: ^3H‐prazosin whole‐cell radioligand binding, CHO‐α1D cells
T3 construct: human α1D‐adrenoceptor (full length) were used; expressed in transfected cells; host or cells: CHO-K1
T3 sequence (P25100 1-572): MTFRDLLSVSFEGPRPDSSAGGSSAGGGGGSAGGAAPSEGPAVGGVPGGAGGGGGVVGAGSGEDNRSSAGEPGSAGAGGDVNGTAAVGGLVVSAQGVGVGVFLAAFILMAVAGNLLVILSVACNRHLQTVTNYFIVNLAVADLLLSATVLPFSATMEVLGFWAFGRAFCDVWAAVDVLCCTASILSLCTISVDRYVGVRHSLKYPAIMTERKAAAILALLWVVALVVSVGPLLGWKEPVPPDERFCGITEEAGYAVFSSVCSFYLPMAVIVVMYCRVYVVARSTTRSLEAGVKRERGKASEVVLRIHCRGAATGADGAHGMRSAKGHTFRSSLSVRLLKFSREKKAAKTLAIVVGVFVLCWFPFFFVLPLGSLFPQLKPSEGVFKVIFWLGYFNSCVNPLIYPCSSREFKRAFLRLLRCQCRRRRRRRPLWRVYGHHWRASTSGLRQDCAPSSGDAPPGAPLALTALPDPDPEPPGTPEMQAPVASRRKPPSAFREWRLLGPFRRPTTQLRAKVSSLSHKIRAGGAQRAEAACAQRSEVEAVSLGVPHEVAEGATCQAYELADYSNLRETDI

human α1A‐adrenoceptor [4] = target: T1, human α1A‐adrenoceptor; experiment: Intracellular free calcium mobilization, CHO‐α1A cells; assay type: cell-based
human α1B‐adrenoceptor [5] = target: T2, human α1B‐adrenoceptor; experiment: Intracellular free calcium mobilization, CHO‐α1B cells; assay type: cell-based
[6] = target: T3, human α1D‐adrenoceptor (full length); experiment: Intracellular free calcium mobilization, CHO‐α1D cells; assay type: cell-based
[7] = tested on: parental CHO cell line without any transfected receptors; experiment: Intracellular calcium mobilization, parent CHO cells without transfected receptors; assay type: cell-based, Chinese hamster; conditions: Cricetulus griseus; CHO cells without transfected receptors; response at maximum concentration used (c2), as % of ionomycin (10μM) response; mean ± s.e.m.; read-out: Intracellular calcium release % ionomycin
human α1A‐adrenoceptor [8] = target: T1, human α1A‐adrenoceptor; experiment: ERK1/2‐phosphorylation (Surefire Alphascreen), CHO‐α1A cells; assay type: cell-based
human α1B‐adrenoceptor [9] = target: T2, human α1B‐adrenoceptor; experiment: ERK1/2‐phosphorylation (Surefire Alphascreen), CHO‐α1B cells; assay type: cell-based
[10] = target: T3, human α1D‐adrenoceptor (full length); experiment: ERK1/2‐phosphorylation (Surefire Alphascreen), CHO‐α1D cells; assay type: cell-based
[11] = tested on: parental CHO cell line without any transfected receptors; experiment: ERK1/2‐phosphorylation, parent CHO cells without transfected receptors; assay type: cell-based, Chinese hamster; conditions: Cricetulus griseus, CHO; read-out: ERK1/2-phosphorylation % PDBu at 100μM
human α1A‐adrenoceptor [12] = target: T1, human α1A‐adrenoceptor; experiment: ^3H‐cAMP accumulation, CHO‐α1A cells; assay type: cell-based; conditions: CHO‐α1A cells
human α1B‐adrenoceptor [13] = target: T2, human α1B‐adrenoceptor; experiment: ^3H‐cAMP accumulation, CHO‐α1B cells; assay type: cell-based; conditions: CHO‐α1B cells
[14] = target: T3, human α1D‐adrenoceptor (full length); experiment: ^3H‐cAMP accumulation, CHO‐α1D cells; assay type: cell-based; conditions: cAMP accumulation without forskolin
human α1A‐adrenoceptor [15] = target: T1, human α1A‐adrenoceptor; experiment: ^3H‐cAMP accumulation in the presence of 10 μM forskolin, CHO‐α1A cells; assay type: cell-based; conditions: CHO‐α1A cells
human α1B‐adrenoceptor [16] = target: T2, human α1B‐adrenoceptor; experiment: ^3H‐cAMP accumulation in the presence of 10 μM forskolin, CHO‐α1B cells; assay type: cell-based; conditions: CHO‐α1B cells
[17] = target: T3, human α1D‐adrenoceptor (full length); experiment: ^3H‐cAMP accumulation in the presence of 10 μM forskolin, CHO‐α1D cells; assay type: cell-based; conditions: CHO‐α1D cells
[18] = tested on: parental CHO cell line without any transfected receptors; experiment: Forskolin‐stimulated cAMP accumulation, parent CHO cells without transfected receptors; assay type: cell-based, Chinese hamster; conditions: CHO cells without transfected receptors; response at 100μM only, EC50 not obtainable; % of forskolin-stimulated cAMP
[19] = read-out: Intracellular calcium release Log EC50 (converted)
[20] = read-out: ERK1/2‐phosphorylation Log EC50 (converted)
[21] = fold increase of the forskolin response

Cc1cccc([C@H](C)c2cnc[nH]2)c1C [Dexmedetomidine]
Affinity selectivity ratio α1A vs α1B (human α1A‐adrenoceptor [1]): 6.9 fold | Kd (human α1A‐adrenoceptor [1]; Log KD α1A, ^3H‐prazosin whole cell binding): 1320 nM | Kd (human α1B‐adrenoceptor [2]; Log KD α1B, ^3H‐prazosin whole cell binding): 9120 nM | Kd (human α1B‐adrenoceptor [2]; Log KD, ^3H‐prazosin binding): 9120 nM | Affinity selectivity ratio α1A vs α1D [3]: 1.3 fold | Affinity selectivity ratio α1B vs α1D [3]: 9.3 fold | Kd ([3]; 3H‐prazosin binding Log KD): 1230 nM | Kd ([3]; Log KD α1D, ^3H‐prazosin whole cell binding): 1230 nM | Intracellular calcium release % ionomycin (human α1A‐adrenoceptor [4]): 57.3 ± 2.8% | Log efficacy ratio KD /EC50 (human α1A‐adrenoceptor [4]): 1.91 | EC50 (human α1A‐adrenoceptor [4]; [19]): 16.2 nM | Intracellular calcium release % ionomycin (human α1B‐adrenoceptor [5]): 43.6 ± 2.1% | Log efficacy ratio KD /EC50 (human α1B‐adrenoceptor [5]): 2.29 | EC50 (human α1B‐adrenoceptor [5]; [19]): 46.8 nM | Intracellular calcium release % Ionomycin at 100 µM [6]: 13.1 ± 1.7% | Emax [7]: 6.3 ± 4.8% | ERK1/2‐phosphorylation % PDBu (human α1A‐adrenoceptor [8]): 81.7 ± 4.4% | EC50 (human α1A‐adrenoceptor [8]; [20]): 13.8 nM | ERK1/2‐phosphorylation % PDBu (human α1B‐adrenoceptor [9]): 55.4 ± 7.4% | EC50 (human α1B‐adrenoceptor [9]; [20]): 132 nM | ERK1/2‐phosphorylation % PDBu at 100 µM [10]: 19.7 ± 3.3% | Emax at 100 µM [11]: 5.8 ± 2.2% | EC50 (human α1A‐adrenoceptor [12]; 5 h, read-out: cAMP accumulation Log EC50 (converted)): 513 nM | cAMP accumulation % forskolin (human α1A‐adrenoceptor [12]; % of 10 µM forskolin response): 57.6 ± 5.7% | cAMP accumulation % forskolin (human α1B‐adrenoceptor [13]; % forskolin maximum response): 3.7 ± 0.6% | EC50 (human α1B‐adrenoceptor [13]; read-out: cAMP accumulation Log EC50 (converted)): 89.1 nM | cAMP Log EC50 [14]: No response | EC50 (human α1A‐adrenoceptor [15]; 10 μM forskolin, read-out: cAMP accumulation (in presence of forskolin) Log EC50 (converted)): 85.1 nM | cAMP accumulation (in presence of forskolin) Fold increase (human α1A‐adrenoceptor [15]; [21]): 2.13 ± 0.09 fold | cAMP accumulation (in presence of forskolin) Fold increase (human α1B‐adrenoceptor [16]; [21]): 1.60 ± 0.07 fold | EC50 (human α1B‐adrenoceptor [16]; in presence of forskolin, read-out: cAMP accumulation (in presence of forskolin) Log EC50 (converted)): 33.1 nM | cAMP (in presence of forskolin) Fold increase [17, 21]: No response | cAMP (in presence of forskolin) Log EC50 ([17]; in presence of forskolin, log values given negative): No response | cAMP accumulation (in presence of forskolin) % forskolin-stim cAMP at 100μM [18]: 84.4 ± 4.7%
